Assay results reported in publication PMC9693575, “Isopropyl Amino Acid Esters Ionic Liquids as Vehicles for Non-Steroidal Anti-Inflammatory Drugs in Potential Topical Drug Delivery Systems with Antimicrobial Activity” (International Journal of Molecular Sciences, 2022).

Columns and labels:
Type in all cases: cell-based
Design in all cases: key to Inhibition diameter: -: no growth of the organism
[1] = test system: Staphylococcus epidermidis; test: Disc diffusion antimicrobial susceptibility test, Staphylococcus epidermidis
Method: (§1) The plates were incubated for 24 h at 37 °C.

Micrococcus Luteus = test: Disc diffusion antimicrobial susceptibility test, Micrococcus luteus
Escherichia coli = test: Disc diffusion antimicrobial susceptibility test, Escherichia coli
Method: as §1

[2] = solution transferred to disc 25 mg cm^−3
[3] = solution transferred to disc 50 mg cm^−3
[4] = solution transferred to disc 100 mg cm^−3
[5] = solution transferred to disc 200 mg cm^−3
[6] = solution transferred to disc 400 mg cm^−3
[7] = solution transferred to disc 600 mg cm^−3
[8] = solution transferred to disc 800 mg cm^−3
[9] = solution transferred to disc 1000 mg cm^−3

Row | Structure (SMILES) | Inhibition diameter [1, 2] | Inhibition diameter [1, 3] | Inhibition diameter [1, 4] | Inhibition diameter [1, 5] | Inhibition diameter [1, 6] | Inhibition diameter [1, 7] | Inhibition diameter [1, 8] | Inhibition diameter [1, 9] | Inhibition diameter (Micrococcus Luteus; [2]) | Inhibition diameter (Micrococcus Luteus; [3]) | Inhibition diameter (Micrococcus Luteus; [4]) | Inhibition diameter (Micrococcus Luteus; [5]) [mm] | Inhibition diameter (Micrococcus Luteus; [6]) [mm] | Inhibition diameter (Micrococcus Luteus; [7]) [mm] | Inhibition diameter (Micrococcus Luteus; [9]) [mm] | Inhibition diameter (Escherichia coli; [2]) | Inhibition diameter (Escherichia coli; [3]) | Inhibition diameter (Escherichia coli; [4]) | Inhibition diameter (Escherichia coli; [5]) | Inhibition diameter (Escherichia coli; [6]) | further results
1 | CC(C(=O)O)c1cccc(C(=O)c2ccccc2)c1.CSCCC(N)C(=O)OC(C)C (mixture of isomers) [[L-MetOiPr][KETO], L-methionine isopropyl ester ketoprofenate] | - | - | - | - | - | - | - | 7.4 ± 0.2 mm | - | 7.2 ± 0.2 mm | 8.2 ± 0.2 mm | 8.5 ± 0.3 | 9.2 ± 0.1 | 9.6 ± 0.2 | 14.3 ± 0.2 | - | - | 7.3 ± 0.5 mm | 8.0 ± 0.6 mm | 8.9 ± 0.5 mm | Inhibition diameter (Micrococcus Luteus; [8]): 12.4 ± 0.2 mm; Inhibition diameter (Escherichia coli; [7]): 10.6 ± 0.7 mm; Inhibition diameter (Escherichia coli; [9]): 12.9 ± 0.4 mm
2 | CC(C(=O)O)c1cccc(C(=O)c2ccccc2)c1.CC(C)OC(=O)C(N)C(C)O (mixture of isomers) [[L-ThrOiPr][KETO], L-threonine isopropyl ester ketoprofenate] | - | - | - | - | - | - | - | - | - | - | - | 7.4 ± 0.3 | 9.6 ± 0.1 | 14.3 ± 0.2 | 17.4 ± 0.1 | - | - | - | - | - | inhibition zone (in words) ([1]; S. epidermidis, tested concentrations): no inhibition zone was observed; Inhibition diameter (Micrococcus Luteus; [8]): 15.4 ± 0.2 mm; Inhibition diameter (Escherichia coli; [7]): -; Inhibition diameter (Escherichia coli; [9]): -
3 | CC(C(=O)O)c1cccc(C(=O)c2ccccc2)c1.CC(C)OC(=O)C(N)C(C)C (mixture of isomers) [[L-ValOiPr][KETO]] | - | - | - | - | 6.2 ± 0.1 mm | 6.3 ± 0.1 mm | 6.3 ± 0.2 mm | 6.9 ± 0.2 mm | 6.3 ± 0.2 mm | 7.4 ± 0.1 mm | 8.5 ± 0.3 mm | 9.1 ± 0.3 | 10.3 ± 0.2 | 11.7 ± 0.1 | 15.1 ± 0.2 | - | - | - | 6.7 ± 0.3 mm | 7.0 ± 0.2 mm | Inhibition diameter (Escherichia coli; [7]): 7.6 ± 0.3 mm; Inhibition diameter (Escherichia coli; [9]): 8.3 ± 0.4 mm
4 | CC(C(=O)O)c1cccc(C(=O)c2ccccc2)c1.CC[C@H](C)[C@H](N)C(=O)OC(C)C [[L-IleOiPr][KETO], L-isoleucine isopropyl ester ketoprofenate] | - | - | - | - | 6.2 ± 0.1 mm | 7.3 ± 0.2 mm | 8.3 ± 0.1 mm | 10.4 ± 0.2 mm | - | 6.3 ± 0.2 mm | 6.6 ± 0.3 mm | 7.1 ± 0.2 | 7.3 ± 0.1 | 8.3 ± 0.2 | 9.4 ± 0.2 | - | - | - | - | - | Inhibition diameter (Micrococcus Luteus; [8]): 8.4 ± 0.3 mm; Inhibition diameter (Escherichia coli; [7]): -; Inhibition diameter (Escherichia coli; [9]): -
